Assay results as given in patent publication US20130136772A1, “REGULATION OF IMMUNE RESPONSE BY COLOCYNTHIN AND/OR ITS DERIVATIVES” (priority 2010, published 2013).
Where “and” joins values, the source holds several entries; their conditions need not be identical. Identical values can stand only once.

Assays:
leucocyte migration = assay: In vivo leucocyte migration (carrageenan induced pleurisy); parameters: species or system mice; details: for EXUDATE VOLUME Mean ± S.E.: 1 h before and 6 h after carrageenan, pleural exudate at 24 h
Experimental: Mice were injected with 0.2 ml of carrageenan (1% w/v) solution in sterilised normal saline into the pleural cavity by the modified method of Meacock and Kitchen, 1979 [Meacock S C R, Kitchen E A, (1979). Effect of non-steroidal antiinflammatory drug benoxaprofen on leukocyte migration. Journal of Pharmacy & Pharmacology; 31: 366-370]. The test drug was administered orally 1 h before and 6 h after the injection. After 24 h of carrageenan injection the pleural exudate was collected, volume measured and the total leucocyte count of the pleural fluid was determined (Table 3). Flowcytometry as a tool for evaluation of neutrophils is particularly useful because of their larger size than monocytes and lymphocytes when analysed on the forward scatter [FSc]. The percentage of these can be analysed by selectively ‘gating’ the neutrophils without physical separation of the cells (FIG. 4).

skin allograft rejection = assay: Skin allograft rejection time; type: in vivo, mice
Experimental: The modified method of Billingham and Medawar (1951) [[…]] was followed to study the skin allograft rejection time in mice. Graded doses of test material AD-B-63B were administered to the animals for 7 days and graft rejection time (GRT) was recorded by daily observation of epithelial skin layer survival. […] The basic mechanism involved in increase in graft rejection time is the suppression of T lymphocytes. After transplantation, MHC peptide complexes of the foreign organ are recognized by CD4+ and CD8+ T cells of the recipient as non-self antigens. These T cells differentiate into effector T cells and stimulate an immune response. After T cells differentiate and migrate to the site, macrophages and other inflammatory agents are mediated to the site. Cytotoxic T cells (CD8+) lyse the endothelial cells on the graft, CD4+ Th1 activate macrophages and CD4+ Th2 aid in antibody production.

[1] = system: cell mediated immune response (DTH); assay: SRBC induced delayed type hypersensitivity (DTH) response; type: in vivo, mice; details: for FOOT PAD THICKNESS Mean ± SE: 24 h after SRBC challenge
Experimental: Test material was administered 2 h after immunization of mice by 200 μl of 5×10^9 SRBCs/ml. On 7th day, the thickness of the left hind foot was measured with spheromicrometer (0.01 mm pitch) and was considered as control. These mice were then challenged by injecting the 20 μl of 5×10^9 SRBCs/ml intradermally into the left hind footpad. The footpad thickness was measured again at 24 h after challenge (Doherty, 1981).

[2] = system: humoral antibody response; assay: SRBC induced haemagglutination antibody titre (humoral immune response); type: in vivo, mice; details: for ANTIBODY TITRE MEAN ± S.E: blood on day 7
Experimental: 200 μl of 5×10^9 SRBC/ml was used to immunize the animals on day 0. Animals were treated with graded doses of AD-B-63B i.e., 1, 2.5, 5 and 10mg/kg p.o. for next six consecutive days. Blood samples were collected on day 7 for antibody titre assay. Haemagglutination antibody titre was determined following the microtitration technique described by Nelson and Midenhall, 1967. The value of highest serum dilution causing visible Haemagglutination was taken as titre. BSA saline alone served as control (Table 7).

CD4+ T cells = assay: Lymphocyte immunophenotyping, CD4+ T cell population in SRBC immunised mice; type: in vivo, Swiss albino mice; details: graded doses; most significant suppression at 5 and 10 mg/kg vs sensitized control
From the text: (§1) Immunophenotyping focuses on lymphocyte populations involved in acquired immunity. Specific molecules present on the cell surface defines characteristics of lymphocytes such as state of activation or functional capabilities. Murine monoclonal antibodies conjugated to a fluorochrome and directed against co-receptors CD4 and CD8 were used in a multi parametric flowcytometric assay to quantify the lymphocyte subsets associated with the cell-mediated immune response.
(§2) Estimation of T cell surface markers: On day 0, mice were immunized by injecting 200 μl of 5×10^9 SRBC/ml intraperitonially. Drug administration was carried out for 6 days including the day of immunization. Same amount of SRBC was used to challenge the animals on day 7. After 24 h of challenge, blood was taken from retro-orbital plexus of animals for estimation of CD4^+ and CD8^+ T cells. 100 μl of whole blood was taken in each tube and FITC (fluorescein isothiocyanate) labelled CD4+ and PE (phycoerythrin) labelled CD8+ monoclonal antibodies were added and mixed gently. Tubes were incubated in the dark for 30 min. at room temperature. Subsequently, 2 ml of 1× FACS lysing solution was added at room temperature with gentle mixing. Samples were again incubated at room temperature for 10 min. […]

CD8+ T cells = assay: Lymphocyte immunophenotyping, CD8+ T cell population in SRBC immunised mice; type: in vivo, Swiss albino mice; details: graded doses; most significant suppression at 5 and 10 mg/kg vs sensitized control
From the text: as §1, §2

IFN-γ = assay: Intracellular IFN-γ expression in SRBC immunised mice; type: in vivo, Swiss albino mice; details: graded doses; inhibition observed at 5 and 10 mg/kg p.o.
Experimental: Estimation of intracellular cytokines: The animals were immunized as mentioned above. After 6 days of drug administration, the animals were challenged on day 7. After 48 h of challenge, the blood was collected in the tubes containing EDTA (anti-coagulant) from retro-orbital plexes of animals to determine the effect of test material on the expression of intracellular IL-2 and IFN-γ (Th1) and IL-4 (Th2) cytokines. In this study, PE labeled IL-2 monoclonal antibody was used in one set and PE labeled IFN-γ and FITC labelled IL-4 monoclonal antibody was used in the other set of experimentation (FIG. 7, 8, 9).

[3] = graded oral doses, highly significant effect at 10 mg/kg oral dose

CC(=O)OC(C)(C)/C=C/C(=O)[C@](C)(O)[C@H]1[C@H](O)C[C@@]2(C)[C@@H]3CC=C4[C@@H](C=C(O[C@@H]5O[C@H](CO)[C@@H](O)[C@H](O)[C@H]5O)C(=O)C4(C)C)[C@]3(C)C(=O)C[C@]12C [AD-B-63B, 2-O-β-D-glucopyranosyl cucurbitacin E]
% inhibition of exudate volume (leucocyte migration; 1 mg/kg p.o.): (22.72%↓) | % inhibition of total leucocyte count (leucocyte migration; 1 mg/kg p.o.): (12.12%↓) | EXUDATE VOLUME Mean ± S.E. (leucocyte migration; 1 mg/kg p.o.): 0.85 ± 0.10 mL | % inhibition of exudate volume (leucocyte migration; 5 mg/kg p.o.): (38.18%↓) | % inhibition of total leucocyte count (leucocyte migration; 5 mg/kg p.o.): (23.52%↓) | EXUDATE VOLUME Mean ± S.E. (leucocyte migration; 5 mg/kg p.o.): 0.68 ± 0.18 mL | % inhibition of exudate volume (leucocyte migration; 10 mg/kg p.o.): (44.54%↓) | % inhibition of total leucocyte count (leucocyte migration; 10 mg/kg p.o.): (24.39%↓) | EXUDATE VOLUME Mean ± S.E. (leucocyte migration; 10 mg/kg p.o.): 0.61 ± 0.10 mL | exudates volume against control (leucocyte migration; [3]): dose dependent inhibition | total leucocytes count against control (leucocyte migration; [3]): dose dependent inhibition | GRAFT REJECTION (Percent), delayed (skin allograft rejection; 1 mg/kg p.o.): 16.30% and 16.30↓ % | REJECTION TIME Mean ± S.E. (skin allograft rejection; 1 mg/kg p.o. for 7 days): 15.12 ± 0.11 days | GRAFT REJECTION (Percent), delayed (skin allograft rejection; 5 mg/kg p.o.): 29.23% and 29.23↓ % | REJECTION TIME Mean ± S.E. (skin allograft rejection; 5 mg/kg p.o. for 7 days): 16.80 ± 0.22 days | GRAFT REJECTION (Percent), delayed (skin allograft rejection; 10 mg/kg p.o.): 31.84% and 31.84↓ % | REJECTION TIME Mean ± S.E. (skin allograft rejection; 10 mg/kg p.o. for 7 days): 17.14 ± 0.23 days | PERCENT INHIBITION (DTH response) ([1]; 1 mg/kg p.o.): 15.21↓ % | FOOT PAD THICKNESS Mean ± SE ([1]; 1 mg/kg p.o.): 0.78 ± 0.01 mm | PERCENT INHIBITION (DTH response) ([1]; 5 mg/kg p.o.): 28.26↓ % | FOOT PAD THICKNESS Mean ± SE ([1]; 5 mg/kg p.o.): 0.66 ± 0.01 mm | PERCENT INHIBITION (DTH response) ([1]; 10 mg/kg p.o.): 29.35↓ % | FOOT PAD THICKNESS Mean ± SE ([1]; 10 mg/kg p.o.): 0.65 ± 0.02 mm | SRBC induced DTH reaction ([1]; orally administered, graded doses): dose dependent decrease | % ACTIVITY (decrease in antibody titre) ([2]; 1 mg/kg p.o.): 13.47↓ % | ANTIBODY TITRE MEAN ± S.E ([2]; 1 mg/kg p.o. for six days): 5.33 ± 0.45 | % ACTIVITY (decrease in antibody titre) ([2]; 5 mg/kg p.o.): 33.11↓ % | ANTIBODY TITRE MEAN ± S.E ([2]; 5 mg/kg p.o. for six days): 4.12 ± 0.33 | % ACTIVITY (decrease in antibody titre) ([2]; 10 mg/kg p.o.): 35.06↓ % | ANTIBODY TITRE MEAN ± S.E ([2]; 10 mg/kg p.o. for six days): 4.00 ± 0.31 | antibody synthesis (haemagglutination antibody titre) ([2]; significant decrease at 2.5, 5 and 10 mg/kg p.o.): inhibition of antibody synthesis | percentage of CD4+ T-cell population (CD4+ T cells): decrease | percentage of CD8+ T-cell population (CD8+ T cells): decrease | expression of IFN-γ (IFN-γ): decrease
